Assay results as given in patent US20230172206A1 (BASF SE, priority 2020, published 2023).

Test system: Phakopsora pachyrhizi (F129L)
Experiment: Protective control of soybean rust on soybeans (PHAKPA P2)
Assay type: in vivo
Details: protective P2, 4 ppm, F129L isolate

Point of comparison: CCC/C(=N\OCc1c(C)cccc1/C(=N\OC)C(=O)OC)c1ccccc1 [compound 387], “% PHAKPA (F129L) Disease level P2 at 4 ppm” value 60%. Against it:
- CNC(=O)/C(=N/OC)c1cccc(C)c1CO/N=C(\CC(F)(F)F)c1ccccc1 [compound 380] — lower, 53%
- CCC/C(=N\OCc1c(C)cccc1/C(=N\OC)C(=O)NC)c1ccccc1 [compound 388] — lower, 1%
- CNC(=O)/C(=N/OC)c1cccc(C)c1CO/N=C(/c1ccccc1)C(C)C [compound 389] — lower, 28%
- CO/C=C(/C(=O)OC)c1cccc(C)c1CO/N=C(\C)c1c(F)cccc1C(F)(F)F [compound 390] — lower, 22%
- CNC(=O)/C(=N/OC)c1cccc(C)c1CO/N=C(\CC(F)(F)F)c1ccccc1C [compound 393] — higher, 93%
- CNC(=O)/C(=N/OC)c1cccc(C)c1CO/N=C(\C)c1ccc(F)cc1CC(F)(F)F [compound 394] — lower, 9%
- CO/N=C(/C(=O)OC)c1cccc(Br)c1CO/N=C(\C)c1ccccc1 [compound 395] — lower, 43%
- CNC(=O)/C(=N/OC)c1cccc(Br)c1CO/N=C(\C)c1ccccc1 [compound 396] — lower, 3%
- C=C(C)c1cccc(/C(=N\OC)C(=O)NC)c1CO/N=C(\C)c1ccccc1 [compound 399] — higher, 67%

Same assay, conditions: protective P2, 4 ppm, soybean rust F129L isolate

Point of comparison: CO/N=C(/C(=O)OC)c1cccc(C)c1CO/N=C(\C)c1c(F)cc(Br)cc1C(F)(F)F [compound 368], “% PHAKPA (F129L) Disease level P2 at 4 ppm” value 83%. Against it:
- CNC(=O)/C(=N/OC)c1cccc(C)c1CO/N=C(\C)c1ccccc1C(C)(F)F [compound 372] — higher, 85%
- CO/N=C(/C(=O)OC)c1cccc(C)c1CO/N=C(\C)c1ccc(OC)cc1OC(F)(F)F [compound 373] — lower, 77%
- CNC(=O)/C(=N/OC)c1cccc(C)c1CO/N=C(\C)c1ccc(Cl)cc1OC(F)(F)F [compound 375] — lower, 47%
- CNC(=O)/C(=N/OC)c1cccc(C)c1CO/N=C(\C)c1ccc(F)cc1OC(F)(F)F [compound 378] — lower, 18%

Same assay, conditions: protective P2, 16 ppm, F129L isolate

Point of comparison: CNC(=O)/C(=N/OC)c1cccc(Br)c1CO/N=C(\C)c1ccccc1 [compound 396], “% PHAKPA (F129L) Disease level P2 at 16 ppm” value 0%. Against it:
- CNC(=O)/C(=N/OC)c1cccc(C)c1CO/N=C(\CC(F)(F)F)c1ccccc1 [compound 380] — higher, 5%
- CCC/C(=N\OCc1c(C)cccc1/C(=N\OC)C(=O)OC)c1ccccc1 [compound 387] — higher, 30%
- CCC/C(=N\OCc1c(C)cccc1/C(=N\OC)C(=O)NC)c1ccccc1 [compound 388] — the same, 0%
- CNC(=O)/C(=N/OC)c1cccc(C)c1CO/N=C(/c1ccccc1)C(C)C [compound 389] — higher, 4%
- CO/C=C(/C(=O)OC)c1cccc(C)c1CO/N=C(\C)c1c(F)cccc1C(F)(F)F [compound 390] — the same, 0%
- CNC(=O)/C(=N/OC)c1cccc(C)c1CO/N=C(\CC(F)(F)F)c1ccccc1C [compound 393] — higher, 55%
- CNC(=O)/C(=N/OC)c1cccc(C)c1CO/N=C(\C)c1ccc(F)cc1CC(F)(F)F [compound 394] — higher, 3%
- CO/N=C(/C(=O)OC)c1cccc(Br)c1CO/N=C(\C)c1ccccc1 [compound 395] — higher, 4%
- C=C(C)c1cccc(/C(=N\OC)C(=O)NC)c1CO/N=C(\C)c1ccccc1 [compound 399] — higher, 8%

Same assay, conditions: protective P2, 16 ppm, soybean rust F129L isolate

Point of comparison: CO/N=C(/C(=O)OC)c1cccc(C)c1CO/N=C(\C)c1ccc(OC)cc1OC(F)(F)F [compound 373], “% PHAKPA (F129L) Disease level P2 at 16 ppm” value 27%. Against it:
- CO/N=C(/C(=O)OC)c1cccc(C)c1CO/N=C(\C)c1c(F)cc(Br)cc1C(F)(F)F [compound 368] — higher, 47%
- CNC(=O)/C(=N/OC)c1cccc(C)c1CO/N=C(\C)c1ccccc1C(C)(F)F [compound 372] — lower, 26%
- CNC(=O)/C(=N/OC)c1cccc(C)c1CO/N=C(\C)c1ccc(Cl)cc1OC(F)(F)F [compound 375] — lower, 8%
- CNC(=O)/C(=N/OC)c1cccc(C)c1CO/N=C(\C)c1ccc(F)cc1OC(F)(F)F [compound 378] — lower, 1%

Test system: Phakopsora pachyrhizi (F129L)
Experiment: Protective control of soybean rust on soybeans (PHAKPA P6)
Assay type: in vivo
Details: protective P6, 4 ppm, F129L isolate

Point of comparison: C=C(C)c1cccc(/C(=N\OC)C(=O)NC)c1CO/N=C(\C)c1ccccc1 [compound 399], “% PHAKPA (F129L) Disease level P6 at 4 ppm” value 90%. Against it:
- CNC(=O)/C(=N/OC)c1cccc(C)c1CO/N=C(\CC(F)(F)F)c1ccccc1 [compound 380] — lower, 60%
- CCC/C(=N\OCc1c(C)cccc1/C(=N\OC)C(=O)OC)c1ccccc1 [compound 387] — lower, 80%
- CCC/C(=N\OCc1c(C)cccc1/C(=N\OC)C(=O)NC)c1ccccc1 [compound 388] — lower, 3%
- CNC(=O)/C(=N/OC)c1cccc(C)c1CO/N=C(/c1ccccc1)C(C)C [compound 389] — lower, 43%
- CO/C=C(/C(=O)OC)c1cccc(C)c1CO/N=C(\C)c1c(F)cccc1C(F)(F)F [compound 390] — lower, 18%
- CNC(=O)/C(=N/OC)c1cccc(C)c1CO/N=C(\CC(F)(F)F)c1ccccc1C [compound 393] — higher, 93%
- CNC(=O)/C(=N/OC)c1cccc(C)c1CO/N=C(\C)c1ccc(F)cc1CC(F)(F)F [compound 394] — lower, 12%
- CO/N=C(/C(=O)OC)c1cccc(Br)c1CO/N=C(\C)c1ccccc1 [compound 395] — lower, 67%
- CNC(=O)/C(=N/OC)c1cccc(Br)c1CO/N=C(\C)c1ccccc1 [compound 396] — lower, 4%

Same assay, conditions: protective P6, 4 ppm, soybean rust F129L isolate

Point of comparison: CO/N=C(/C(=O)OC)c1cccc(C)c1CO/N=C(\C)c1c(F)cc(Br)cc1C(F)(F)F [compound 368], “% PHAKPA (F129L) Disease level P6 at 4 ppm” value 90%. Against it:
- CNC(=O)/C(=N/OC)c1cccc(C)c1CO/N=C(\C)c1ccccc1C(C)(F)F [compound 372] — lower, 85%
- CO/N=C(/C(=O)OC)c1cccc(C)c1CO/N=C(\C)c1ccc(OC)cc1OC(F)(F)F [compound 373] — higher, 100%
- CNC(=O)/C(=N/OC)c1cccc(C)c1CO/N=C(\C)c1ccc(Cl)cc1OC(F)(F)F [compound 375] — lower, 40%
- CNC(=O)/C(=N/OC)c1cccc(C)c1CO/N=C(\C)c1ccc(F)cc1OC(F)(F)F [compound 378] — lower, 17%

Same assay, conditions: protective P6, 16 ppm, F129L isolate

Point of comparison: CO/N=C(/C(=O)OC)c1cccc(Br)c1CO/N=C(\C)c1ccccc1 [compound 395], “% PHAKPA (F129L) Disease level P6 at 16 ppm” value 18%. Against it:
- CNC(=O)/C(=N/OC)c1cccc(C)c1CO/N=C(\CC(F)(F)F)c1ccccc1 [compound 380] — lower, 12%
- CCC/C(=N\OCc1c(C)cccc1/C(=N\OC)C(=O)OC)c1ccccc1 [compound 387] — higher, 47%
- CCC/C(=N\OCc1c(C)cccc1/C(=N\OC)C(=O)NC)c1ccccc1 [compound 388] — lower, 0%
- CNC(=O)/C(=N/OC)c1cccc(C)c1CO/N=C(/c1ccccc1)C(C)C [compound 389] — lower, 3%
- CO/C=C(/C(=O)OC)c1cccc(C)c1CO/N=C(\C)c1c(F)cccc1C(F)(F)F [compound 390] — lower, 2%
- CNC(=O)/C(=N/OC)c1cccc(C)c1CO/N=C(\CC(F)(F)F)c1ccccc1C [compound 393] — higher, 42%
- CNC(=O)/C(=N/OC)c1cccc(C)c1CO/N=C(\C)c1ccc(F)cc1CC(F)(F)F [compound 394] — lower, 2%
- CNC(=O)/C(=N/OC)c1cccc(Br)c1CO/N=C(\C)c1ccccc1 [compound 396] — lower, 0%
- C=C(C)c1cccc(/C(=N\OC)C(=O)NC)c1CO/N=C(\C)c1ccccc1 [compound 399] — lower, 15%

Same assay, conditions: protective P6, 16 ppm, soybean rust F129L isolate

Point of comparison: CO/N=C(/C(=O)OC)c1cccc(C)c1CO/N=C(\C)c1c(F)cc(Br)cc1C(F)(F)F [compound 368], “% PHAKPA (F129L) Disease level P6 at 16 ppm” value 73%. Against it:
- CNC(=O)/C(=N/OC)c1cccc(C)c1CO/N=C(\C)c1ccccc1C(C)(F)F [compound 372] — lower, 16%
- CO/N=C(/C(=O)OC)c1cccc(C)c1CO/N=C(\C)c1ccc(OC)cc1OC(F)(F)F [compound 373] — lower, 38%
- CNC(=O)/C(=N/OC)c1cccc(C)c1CO/N=C(\C)c1ccc(Cl)cc1OC(F)(F)F [compound 375] — lower, 6%
- CNC(=O)/C(=N/OC)c1cccc(C)c1CO/N=C(\C)c1ccc(F)cc1OC(F)(F)F [compound 378] — lower, 1%
